For this series the following is noted: rat; liver microsomes; pH 7.4; 15.0 min; 1.0 µM. For orientation: Liver microsomes are a subcellular fraction often used to study metabolism.

As a reminder, the half-life is how long it takes for the measured level to halve. Read a low half-life as fast loss.

In the case of `CCc1nnc(NC(=O)c2nc(S(=O)(=O)Cc3ccc(C)cc3)ncc2Cl)s1`, the half-life was found to be 7.58 min.

For the compound `FC(F)(F)c1ccccc1-c1nc(NCc2ccccc2)c2ccccc2n1`, the half-life is 2.74 min.

The compound `Cc1nc(N2CCN(c3ccccn3)CC2)c2c(C)c(C(=O)Nc3ccc(F)cc3Cl)sc2n1` gave a half-life of 10.2 min.

Regarding `COc1cccc(CNc2ccc(S(=O)(=O)Nc3nccs3)cc2)c1`, the half-life was found to be 15 min.

`O=C(NCC1CCN(Cc2cccc(Cl)c2)CC1)Nc1ccc(F)c(Cl)c1` displayed a half-life of 22.7 min.

Take `Cc1ccccc1C(=O)N1CCc2cc(-c3nc(NC(=O)Cc4ccc5ccccc5c4)sc3C)ccc21`: the half-life is > 30 min.

Consider `COc1ccc(-n2nc(C3CCN([S+](=O)([O-])c4cccc(C(F)(F)F)c4)CC3)[nH]c2=O)cc1`, for which the half-life was 15 min.

For `CC(=O)c1c(C)[nH]c(C(=O)Nc2ccc(C)c(S(=O)(=O)N3CCCCCC3)c2)c1C`, the half-life is 1.9 min. This half-life lies about 7.9-fold lower than the previous one.

The compound `CCc1cccc(C)c1Nc1c(-c2ccc(N(C)C)cc2)nc2ncccn12` showed a half-life of 4.23 min.

In the case of `Clc1ccc(-c2noc3ncnc(N4CCCCC4)c23)cc1`, the half-life worked out at 5.8 min.

`COc1ccccc1NC(=O)c1oc2ccccc2c1NC(=O)Cc1cccs1` displayed a half-life of 6.77 min.

In the case of `CC(=O)c1ccc(N2CCN(S(=O)(=O)c3ccc4c(c3)n(C)c(=O)n4C)CC2)cc1`, the half-life is > 30 min.

Take `O=C(c1cnn(-c2cccc(F)c2)c1-n1cccc1)N1CCN(c2ccccc2F)CC1`: the half-life is 1.93 min.

`COc1cccc(-c2nc(-c3c(C)noc3C)cc3[nH]c(C)cc23)c1OC` yielded a half-life of 10.2 min.

As for `OCCN1CCN(CCCN2c3ccccc3Sc3ccc(Cl)cc32)CC1`, the half-life worked out at 4.34 min.

Compound `COc1ccc(-c2nc3sc(CCNC(=O)C(C)(C)C)c(C)n3n2)cc1` showed a half-life of 9.33 min.

Take `COc1ccc(OCCN2CCN(C(=O)c3ccc(OC)cc3)CC2)cc1`: the half-life is > 30 min.

Turning to `CC1(C)CCC(c2ccc(Cl)cc2)=C(CN2CCN(c3ccc(C(=O)NS(=O)(=O)c4ccc(N[C@H](CCN5CCOCC5)CSc5ccccc5)c(S(=O)(=O)C(F)(F)F)c4)cc3)CC2)C1`, the half-life was > 30 min.

For `CCn1cc(C(=O)O)c(=O)c2cnc(N3CCN(C(=S)Nc4ccccc4)CC3)nc21`, the half-life was > 30 min.

Consider `CS(=O)(=O)N1CCN(c2nc(-c3ccc(Br)cc3)cs2)CC1`, for which the half-life was > 30 min.

As for `Cc1cccc(-n2cnc3cc(C(=O)N4CCCC(C(F)(F)F)C4)ccc32)c1` (centres undefined), the half-life was 1.3 min.

`NC(=O)C1CCN(c2ncc(-c3ccc4c(c3)OC(F)(F)O4)s2)CC1` had a half-life of 9.4 min.

Regarding `CC(C)=CCNc1ncnc2nc[nH]c12`, the half-life is > 30 min.

Take `CCc1oc2ccccc2c1C(=O)c1cc(Br)c(O)c(Br)c1`: the half-life amounted to 9.75 min.

Regarding `NC(=O)C1CCN(c2nc(-c3ccc(N)cc3)cs2)CC1`, the half-life is > 30 min.

`CC[C@H](C)[C@@H]([C@@H](CC(=O)N1CCC[C@H]1[C@H](OC)[C@@H](C)C(=O)N[C@@H](Cc1ccccc1)c1nccs1)OC)N(C)C(=O)[C@@H](NC(=O)[C@H](C(C)C)N(C)C)C(C)C`: the half-life was > 30 min.

Regarding `Cn1ccc2cc(-c3csc(N4CCC(C(N)=O)CC4)n3)ccc21`, the half-life was 2.09 min.

The compound `O=C(Nc1nnc(-c2ccc(Cl)cc2)o1)c1ccc(Cl)c(Cl)c1` returned a half-life of 3.9 min.

The compound `Cc1ccccc1C(=O)N1CCc2cc(-c3csc(NC(=O)Cc4ccc5c(c4)OCO5)n3)ccc21` yielded a half-life of 10.2 min.

Regarding `Fc1cnc(-c2ccccc2C(F)F)nc1NCC1CCN(c2cnccn2)C1` (centres undefined), the half-life worked out at 2.8 min. This half-life lies about 3.6-fold lower than the previous one.

For the compound `O=C(Nc1ccc(OC(F)(F)Cl)cc1)c1cnc(N2CC[C@@H](O)C2)c(-c2ccn[nH]2)c1`, the half-life was > 30 min.

With `N#CC1CCN(c2nc(-c3ccc(Br)cc3)cs2)CC1`, the half-life was found to be 24.7 min.

`O=C1CCCC2=C1C(c1[nH]ncc1Cl)N=C(Nc1nc3cccc(Cl)c3o1)N2` (centres undefined) had a half-life of 4.5 min. This half-life lies about 5.5-fold lower than the previous one.

Take `O=C(O)c1cnc(-c2ccc(F)cc2)nc1-c1ccncc1`: the half-life was > 30 min.

As for `Cc1ccc(-c2cc(C(=O)Nc3ncco3)c3ccccc3n2)cc1C`, the half-life was 5.7 min.

For `COc1cc(NS(=O)(=O)c2ccc(C)cc2)cc(C(=O)Nc2nc(-c3ccccc3)cs2)c1`, the half-life is 13 min.

`Oc1ccc(CN2CC(CNc3ccccc3)C3(C2)CN(c2ccccc2)C3)cc1` (centres undefined) displayed a half-life of 3.01 min.

For `CCOC(=O)C1CCN(c2nc(-c3ccc(Br)cc3)cs2)CC1`, the half-life amounted to 2.19 min.

Take `NC1CCN(C(=O)C2CCCN(c3nc(-c4ccccc4)nc4c3CCC4)C2)CC1` (centres undefined): the half-life is > 30 min.

In turn, `CCOc1ccc(CCNC(=O)c2cc3sccc3n2Cc2ccc(F)cc2F)cc1OCC` yielded a half-life of 1.8 min.

As to `COc1cccc(CNc2ccc(S(=O)(=O)Nc3cccc4ccncc34)cc2)c1O`, the half-life stood at 10 min.

For the compound `CC(C)(C)C(O)C(Oc1ccc(Cl)cc1)n1cncn1` (centres undefined), the half-life was > 30 min.

`COc1ccc(-c2noc(CSc3nnc(Cc4ccccc4)n3-c3ccc(F)cc3)n2)cc1` registered a half-life of 1.69 min.

Regarding `COc1cc2c(C(=O)N3CCN(c4cccc(C(F)(F)F)c4)CC3)cn(CC(C)C)c(=O)c2cc1OC`, the half-life is 3.15 min.

As to `CCc1cccc(NC(=O)C(Cc2ccccc2)NS(=O)(=O)c2cccs2)c1` (centres undefined), the half-life was found to be 1.44 min.

Regarding `NC(=O)C1CCN(c2nc(-c3cccnc3)cs2)CC1`, the half-life is > 30 min.

Turning to `Cc1ccccc1C(=O)N1CCc2cc(-c3nc(NC(=O)c4ccc5c(c4)OCO5)sc3C)ccc21`, the half-life is > 30 min.

As to `CCc1ccc(NC(=O)c2[nH]c(C)c(C(C)=O)c2C)cc1S(=O)(=O)Nc1ccc(C#N)cc1`, the half-life stood at 14.7 min.

In turn, `Fc1ccc(Nc2nc(C3=CCNCC3)nc3ccccc23)cc1F` gave a half-life of 6.1 min.

On to `COc1ccc(S(=O)(=O)N(CC(=O)Nc2ccc(C)cc2)c2ccc(C)cc2)cc1OC`, for which the half-life amounted to 3.28 min.

As for `COc1cccc(S(=O)(=O)Nc2cnccc2C(=O)Nc2nc(-c3ccccc3)cs2)c1`, the half-life is 6.7 min.

In the case of `O=C(Nc1nc(-c2ccccc2)cs1)c1ccncc1NS(=O)(=O)c1c(F)cc(F)cc1F`, the half-life worked out at 5.7 min.

Regarding `Cc1ccc(NC(=O)c2cc(-c3ccc[nH]3)n[nH]2)cc1F`, the half-life came to 6.16 min. This half-life and that of the compound before are within 1.5-fold of each other.

Consider `O=C1CCC(CNC(=O)c2nc(-c3ccccc3)cc3[nH]ccc23)N1` (centres undefined), for which the half-life is > 30 min.

On to `NC(=O)NCC(=O)N[C@H]1CC[C@H](Nc2nccc(-c3ccncc3)n2)C1`, for which the half-life is > 30 min.

Consider `COc1ccc(C)cc1Nc1c2c(nc3ccccc13)CCC2`, for which the half-life amounted to 1.55 min.

As to `CNC(=O)c1cccc(-c2cnc(Nc3cccc(C(F)(F)F)c3)c3c2CCO3)c1`, the half-life is > 30 min.

In turn, `CCCCCn1c(=O)[nH]c2cc(C(=O)NCCCN3CCC(C)CC3)ccc2c1=O` came in with a half-life of 16 min.

As to `CCN(CC)C(=O)c1ccc(O)c(OC)c1`, the half-life was > 30 min.

For `Cc1ccc(C(=O)[C@H]2CC[C@@H](C(=O)Nc3ccc(S(=O)(=O)Nc4nccs4)cc3)C2)cc1C`, the half-life was found to be 2.5 min.

`COc1ccc(NC(=O)c2[nH]c(C)c(C(C)=O)c2C)cc1S(=O)(=O)N(C)C`: the half-life was > 30 min.

The compound `C#Cc1ccc(NC(=O)c2cnn3c(C)cc(C)nc23)cc1` had a half-life of 25.5 min.

Compound `COc1cccc(CNc2ccc(S(=O)(=O)Nc3ccccc3)cc2)c1O` returned a half-life of 6.7 min.

`CC(NCc1ccc2c(c1)nc(NC(=O)c1ccc(-c3cn[nH]c3)s1)n2CC(C)(C)O)C(C)(C)C` (centres undefined) yielded a half-life of 18.8 min.

These data come from PubChem BioAssay AID1508591.
